In publication PMC7539012, “Hyperphosphorylated tau aggregation and cytotoxicity modulators screen identified prescription drugs linked to Alzheimer's disease and cognitive functions” (Scientific Reports, 2020):
Structures can show the parent of a compound that is named as a salt.

tested on: T1, 1N4R p-tau; experiment: p-tau aggregation modulator screen of 1280-compound library (ThS fluorescence net change over 16 h); assay type: biochemical; design: key to PTAI>3SD: *: PTAI>3SD; details: not given
T1 construct: made in house; host or cells: E. coli (PIMAX system)

Row | Molecule | ThS net change
1 | Cc1cccn2c(=O)c(-c3nnn[nH]3)cnc12 [Pemirolast potassium] | 446
2 | CCC(=O)O[C@H]1CC[C@H]2[C@@H]3CCC4=CC(=O)CC[C@]4(C)[C@H]3CC[C@]12C [Testosterone propionate] | 452
3 | Cc1nc2n(c(=O)c1CCN1CCC(c3noc4cc(F)ccc34)CC1)CCCC2 [Risperidone] | 447
4 | Hydralazine hydrochloride | 214
5 | CN1CCc2cccc3c2[C@H]1Cc1ccc(O)c(O)c1-3.CN1CCc2cccc3c2[C@H]1Cc1ccc(O)c(O)c1-3.Cl.Cl.O | 233
6 | COc1cccc2c1C(=O)c1c(O)c3c(c(O)c1C2=O)C[C@@](O)(C(C)=O)C[C@@H]3O[C@H]1C[C@H](N)[C@H](O)[C@H](C)O1 [Daunorubicin hydrochloride] | 235
7 | CN1[C@@H]2CC[C@H]1C[C@@H](OC(=O)[C@H](CO)c1ccccc1)C2 [Hyoscyamine (L)] | 434

same assay, conditions: 1280-compound library screen; ThS fluorescence net change over 16 h

Row | Molecule | ThS net change
8 | O=C(CCCN1CC=C(n2c(=O)[nH]c3ccccc32)CC1)c1ccc(F)cc1 [Droperidol] | 412
9 | CC1=C(/C=C/C(C)=C/C=C/C(C)=C\C(=O)O)C(C)(C)CCC1 [Isotretinoin] | 389
10 | COc1ccc(/C=C/C(=O)Nc2ccccc2C(=O)O)cc1OC [Tranilast] | 392
11 | Nc1nc(Cl)nc2c1ncn2[C@H]1C[C@H](O)[C@@H](CO)O1 [Cladribine] | 399
12 | CCOC(=O)c1ccc(N)cc1 [Benzocaine] | 379
13 | C[C@@](Cc1ccc(O)c(O)c1)(NN)C(=O)O [Carbidopa] | 395
14 | O=C(NCC(O)CO)c1c(I)c(C(=O)NCC(O)CO)c(I)c(N(CCO)C(=O)CO)c1I (stereo not drawn) [Ioversol] | 409
15 | CCN(CC)C(=O)N1CCN(C)CC1 [Diethylcarbamazine citrate] | 391
16 | CC12CC3CC(C)(C1)CC(N)(C3)C2 [Memantine Hydrochloride] | 405
17 | COC(=O)Nc1nc2ccc(C(=O)c3cccs3)cc2[nH]1 [Nocodazole] | 409
18 | NC[C@H]1CC[C@H](C(=O)O)CC1 [Tranexamic acid] | 409
19 | CC(=O)OCC(=O)[C@@]1(O)CC[C@H]2[C@@H]3CCC4=CC(=O)C=C[C@]4(C)[C@@]3(F)[C@@H](O)C[C@@]21C [Isoflupredone acetate] | 388
20 | Minoxidil | 412
21 | COc1ccccc1OCCNCC(O)COc1cccc2[nH]c3ccccc3c12 (stereo not drawn) [Carvedilol] | 394
22 | NC[C@H]1O[C@H](OC2[C@@H](N)C[C@@H](N)[C@H](O)[C@H]2O[C@@H]2O[C@H](CO)[C@@H](O)[C@H]2O)[C@H](N)[C@@H](O)[C@@H]1O.O=S(=O)(O)O (stereo partly drawn) [Ribostamycin sulfate salt] | 379
23 | COc1ccc(C2CNC(=O)C2)cc1OC1CCCC1 (stereo not drawn) [Rolipram] | 406
24 | CCN(CCO)CCCC(C)Nc1ccnc2cc(Cl)ccc12 (stereo not drawn) [Hydroxychloroquine sulfate] | 380
25 | CCNCC(O)c1cccc(O)c1 (stereo not drawn) [Etilefrine hydrochloride] | 407
26 | O=C1c2ccccc2C(=O)C1c1ccccc1 [Phenindione] | 378
27 | O=C(NCCN1CCOCC1)c1ccc(Cl)cc1 [Moclobemide] | 393

same assay, conditions: 1280-compound library screen; […]

Row | Molecule | ThS net change
28 | COc1cc([C@@H]2c3cc4c(cc3[C@H](O)[C@H]3COC(=O)[C@H]23)OCO4)cc(OC)c1OC [Podophyllotoxin] | 402
29 | COc1ccc(OC)c(C(O)CNC(=O)CN)c1 (stereo not drawn) [Midodrine hydrochloride] | 385
30 | CCN(CC)CCOc1ccc(/C(=C(/Cl)c2ccccc2)c2ccccc2)cc1.O=C(O)CC(O)(CC(=O)O)C(=O)O [Clomiphene citrate (Z,E)] | 409
31 | S=C(NC1CCCCC1)N1CCC(c2cnc[nH]2)CC1 [Thioperamide maleate] | 385
32 | C(#CCN1CCCC1)CN1CCCC1.Cl.Cl [Tremorine dihydrochloride] | 391
33 | CC[C@@H]1C(=O)OC[C@@H]1Cc1cncn1C [Pilocarpine nitrate] | 378
34 | O=[N+]([O-])O[C@H]1CO[C@H]2[C@@H]1OC[C@H]2O[N+](=O)[O-] [Isosorbide dinitrate] | 405
35 | CC(Cc1ccccc1)NCCC(c1ccccc1)c1ccccc1 (stereo not drawn) [Prenylamine lactate] | 401
36 | CC(=O)O[C@H]1C[C@@H]2CC[C@@H]3[C@H](CC[C@@]4(C)[C@H]3C[C@H]([N+]3(C)CCCCC3)[C@@H]4OC(C)=O)[C@@]2(C)C[C@@H]1N1CCCCC1 [Vecuronium bromide] | 382

same assay, conditions: flag: p-tau aggregation inhibitor, ThS net change more than 3 SD from mean

Row | Molecule | PTAI>3SD
37 | OCCN(CCO)c1nc(N2CCCCC2)c2nc(N(CCO)CCO)nc(N3CCCCC3)c2n1 [Dipyridamole] | *

same assay, conditions: library screen, ThS fluorescence net change over 16 h with p-tau

Row | Molecule | ThS net change
38 | O=c1[nH]cnc2c1ncn2[C@H]1CC[C@@H](CO)O1 [Didanosine] | 321
39 | CN1CCOC(c2ccccc2)c2ccccc2C1 (stereo not drawn) [Nefopam hydrochloride] | 324
40 | Cc1ncc([N+](=O)[O-])n1CC(C)O (stereo not drawn) [Secnidazole] | 327
41 | CCN(CC)CCOC(=O)C(c1ccccc1)c1ccccc1 [Adiphenine hydrochloride] | 318
42 | O=C1CN(/N=C/c2ccc(-c3ccc([N+](=O)[O-])cc3)o2)C([O-])=N1.[Na+] [Dantrolene sodium salt] | 286
43 | OCCN(CCO)c1nc(N2CCCCC2)c2nc(N(CCO)CCO)nc(N3CCCCC3)c2n1 [Dipyridamole] | -5843
44 | CCCNCC(O)COc1ccccc1C(=O)CCc1ccccc1 (stereo not drawn) [Propafenone hydrochloride] | 317
45 | Cc1cc(N)c2ccccc2[n+]1CCCCCCCCCC[n+]1c(C)cc(N)c2ccccc21 [Dequalinium dichloride] | 297

same assay, conditions: p-tau aggregation modulator screen of 1280-compound library; ThS fluorescence net change

Row | Molecule | ThS net change
46 | CCCCC(O)c1ccccc1 (stereo not drawn) [Fenipentol] | 375
47 | CN(C(=O)C(Cl)Cl)c1ccc(OC(=O)c2ccco2)cc1 [Diloxanide furoate] | 371
48 | O=C(COc1ccc(Cl)cc1)N1CCN(Cc2ccc3c(c2)OCO3)CC1 [Fipexide hydrochloride] | 359
49 | CNCCCN1c2ccccc2CCc2ccccc21 [Desipramine hydrochloride] | 365
50 | CCCN(CCC)C(=O)C(CCC(=O)O)NC(=O)c1ccccc1 (stereo not drawn) [Proglumide] | 331
51 | CCOC(=O)OC(C)OC(=O)[C@@H]1N2C(=O)[C@@H](NC(=O)[C@H](N)c3ccccc3)[C@H]2SC1(C)C (stereo partly drawn) [Bacampicillin hydrochloride] | 371
52 | N=C(N)N1CCc2ccccc2C1 [Debrisoquin sulfate] | 360
53 | C#C[C@]1(O)CC[C@H]2[C@@H]3CCC4=C(CCC(=O)C4)[C@H]3CC[C@@]21C [Norethynodrel] | 341
54 | O=C(Nc1ccccc1)OCC(CN1CCCCC1)OC(=O)Nc1ccccc1 (stereo not drawn) [Diperodon hydrochloride] | 347
55 | CC(=O)Oc1cc(C(C)C)c(OCCN(C)C)cc1C.Cl [Moxisylyte hydrochoride] | 358
56 | c1ccc(C2CN3CCSC3=N2)cc1 (stereo not drawn) [Tetramisole hydrochloride] | 368
57 | O=C(N[C@H](CO)[C@H](O)c1ccc([N+](=O)[O-])cc1)C(Cl)Cl [Chloramphenicol] | 344

same assay, conditions: p-tau aggregation modulator screen of 1280-compound library; […]

Row | Molecule | ThS net change
58 | CN(CCCCCCCCCCN(C)C(=O)Oc1cccc([N+](C)(C)C)c1)C(=O)Oc1cccc([N+](C)(C)C)c1 [Demecarium bromide] | 377
59 | COc1ccc(CN2CCNCC2)c(OC)c1OC [Trimetazidine dihydrochloride] | 365
60 | C[C@]12CCC(=O)C=C1C=C[C@@H]1[C@@H]2CC[C@@]2(C)[C@H]1CC[C@@]2(O)CCC(=O)[O-].[K+] [Canrenoic acid potassium salt] | 329
61 | CC[C@@]1(O)C(=O)OCc2c1cc1n(c2=O)Cc2cc3ccccc3nc2-1 [Camptothecine (S,+)] | 350

same assay, conditions: p-tau aggregation modulator screen of the compound library, ThS fluorescence net change

Row | Molecule | ThS net change
62 | CC(=O)N[C@@H](CC(=O)N[C@@H](CCC(=O)O)C(=O)O)C(=O)O [Spaglumic acid] | 425
63 | NS(=O)(=O)c1cc(C(=O)O)cc(N2CCCC2)c1Oc1ccccc1 [Piretanide] | 435
64 | Tyloxapol | 577
65 | Cc1[nH]c(=O)c(C#N)cc1-c1ccncc1 [Milrinone] | 423
66 | CCC(=O)[C@@]1(C)[C@H](C)C[C@H]2[C@@H]3CCC4=CC(=O)C=C[C@]4(C)[C@H]3[C@@H](O)C[C@@]21C [Rimexolone] | 434
67 | CCOC(=O)C1=C(C)NC(C)=C(C(=O)OCC)C1c1ccccc1/C=C/C(=O)OC(C)(C)C [Lacidipine] | 452
68 | CCC(C)(C)C(=O)O[C@H]1C[C@@H](C)C=C2C=C[C@H](C)[C@H](CC[C@@H]3C[C@@H](O)CC(=O)O3)[C@H]21 [Simvastatin] | 458
69 | NC(=O)OCC(COC(N)=O)c1ccccc1 [Felbamate] | 439
70 | COc1cc(-c2ccc(=O)[nH]n2)ccc1OC(F)F [Zardaverine] | 454
71 | CC(=O)Nc1ccc(CC(=O)O)cc1 [Actarit] | 435
72 | CC(C)C(=O)c1c(C(C)C)nn2ccccc12 [Ibudilast] | 444
73 | Nc1ccn([C@@H]2CS[C@H](CO)O2)c(=O)n1 [Lamivudine] | 424
74 | COc1ccc(Cc2nccc3cc(OC)c(OC)cc23)cc1OC [Papaverine hydrochloride] | 427
75 | CCCCC1=NC2(CCCC2)C(=O)N1Cc1ccc(-c2ccccc2-c2nnn[nH]2)cc1 [Irbesartan] | 454
76 | NCCc1c[nH]cn1 [Histamine dihydrochloride] | 438
77 | CCCCC(=O)O[C@H]1CC[C@H]2[C@@H]3CCc4cc(O)ccc4[C@H]3CC[C@]12C [Estradiol Valerate] | 417
78 | C[C@]12CC[C@@H]3c4ccc(O)cc4C[C@@H](CCCCCCCCC[S+]([O-])CCCC(F)(F)C(F)(F)F)[C@H]3[C@@H]1CC[C@@H]2O (stereo partly drawn) [Fulvestrant] | 442
